Results: article PMC12670405, “Second-Generation AURKA-Targeting PROTACs: Structural Optimization toward in Vivo Degradation in Neuroblastoma” (Journal of Medicinal Chemistry, 2025)

Tests used:
Experiment in all cases: KINOMEscan scanMAX
Format in all cases: binding
[1] = biological target: T1, ABL1(E255K)-phosphorylated (Homo sapiens, UniProt P00519, E255K); details: read-out: Percent Control
T1 construct: purchased Eurofins Discovery (DiscoverX KINOMEscan scanMAX)
Procedure: (§1) The kinome-wide binding assay was performed by Eurofins Discovery using the scanMAX screening platform. More information can be found on the Eurofins Discovery Web site.

[2] = biological target: T2, ABL1(F317L)-nonphosphorylated (Homo sapiens, UniProt P00519, F317L); details: read-out: Percent Control
T2 construct: purchased Eurofins Discovery (DiscoverX KINOMEscan scanMAX)
Procedure: as §1

[3] = biological target: T3, ABL1(Q252H)-nonphosphorylated (Homo sapiens, UniProt P00519, Q252H); details: read-out: Percent Control
T3 construct: purchased Eurofins Discovery (DiscoverX KINOMEscan scanMAX)
Procedure: as §1

[4] = biological target: T4, ABL1(T315I)-phosphorylated (Homo sapiens, UniProt P00519, T315I); details: read-out: Percent Control
T4 construct: purchased Eurofins Discovery (DiscoverX KINOMEscan scanMAX)
Procedure: as §1

[5] = biological target: T5, ALK(C1156Y) (Homo sapiens, UniProt Q9UM73, C1156Y); details: read-out: Percent Control
T5 construct: purchased Eurofins Discovery (DiscoverX KINOMEscan scanMAX)
Procedure: as §1

[6] = biological target: T6, BRSK2 (Homo sapiens, UniProt Q8IWQ3); details: read-out: Percent Control
T6 construct: purchased Eurofins Discovery (DiscoverX KINOMEscan scanMAX)
Procedure: as §1

[7] = biological target: T7, BUB1 (Homo sapiens, UniProt O43683); details: read-out: Percent Control
T7 construct: purchased Eurofins Discovery (DiscoverX KINOMEscan scanMAX)
Procedure: as §1

[8] = biological target: T8, CAMK4 (Homo sapiens, UniProt Q16566); details: read-out: Percent Control
T8 construct: purchased Eurofins Discovery (DiscoverX KINOMEscan scanMAX)
Procedure: as §1

[9] = biological target: T9, CDKL3 (Homo sapiens, UniProt Q8IVW4); details: read-out: Percent Control
T9 construct: purchased Eurofins Discovery (DiscoverX KINOMEscan scanMAX)
Procedure: as §1

[10] = biological target: T10, CHEK2 (Homo sapiens, UniProt O96017); details: read-out: Percent Control
T10 construct: purchased Eurofins Discovery (DiscoverX KINOMEscan scanMAX)
Procedure: as §1

[11] = biological target: T11, CSNK1A1 (Homo sapiens, UniProt P48729); details: read-out: Percent Control
T11 construct: purchased Eurofins Discovery (DiscoverX KINOMEscan scanMAX)
Procedure: as §1

[12] = biological target: T12, CSNK1G2 (Homo sapiens, UniProt P78368); details: read-out: Percent Control
T12 construct: purchased Eurofins Discovery (DiscoverX KINOMEscan scanMAX)
Procedure: as §1

[13] = biological target: T13, DCAMKL1 (Homo sapiens, UniProt O15075); details: read-out: Percent Control
T13 construct: purchased Eurofins Discovery (DiscoverX KINOMEscan scanMAX)
Procedure: as §1

[14] = tested on: EGFR(L747-T751del,Sins)
Procedure: as §1

[15] = biological target: T14, EPHA1 (Homo sapiens, UniProt P21709); details: read-out: Percent Control
T14 construct: purchased Eurofins Discovery (DiscoverX KINOMEscan scanMAX)
Procedure: as §1

[16] = biological target: T15, ERBB4 (Homo sapiens, UniProt Q15303); details: read-out: Percent Control
T15 construct: purchased Eurofins Discovery (DiscoverX KINOMEscan scanMAX)
Procedure: as §1

[17] = biological target: T16, FLT4 (Homo sapiens, UniProt P35916); details: read-out: Percent Control
T16 construct: purchased Eurofins Discovery (DiscoverX KINOMEscan scanMAX)
Procedure: as §1

[18] = biological target: T17, IKK-beta (Homo sapiens, UniProt O14920); details: read-out: Percent Control
T17 construct: purchased Eurofins Discovery (DiscoverX KINOMEscan scanMAX)
Procedure: as §1

[19] = biological target: T18, JNK3 (Homo sapiens, UniProt P53779); details: read-out: Percent Control
T18 construct: purchased Eurofins Discovery (DiscoverX KINOMEscan scanMAX)
Procedure: as §1

[20] = biological target: T19, MARK3 (Homo sapiens, UniProt P27448); details: read-out: Percent Control
T19 construct: purchased Eurofins Discovery (DiscoverX KINOMEscan scanMAX)
Procedure: as §1

[21] = biological target: T20, MEK1 (Homo sapiens, UniProt Q02750); details: read-out: Percent Control
T20 construct: purchased Eurofins Discovery (DiscoverX KINOMEscan scanMAX)
Procedure: as §1

[22] = biological target: T21, MEK4 (Homo sapiens, UniProt P45985); details: read-out: Percent Control
T21 construct: purchased Eurofins Discovery (DiscoverX KINOMEscan scanMAX)
Procedure: as §1

[23] = biological target: T22, MST2 (Homo sapiens, UniProt Q13188); details: read-out: Percent Control
T22 construct: purchased Eurofins Discovery (DiscoverX KINOMEscan scanMAX)
Procedure: as §1

[24] = biological target: T23, MST4 (Homo sapiens, UniProt Q9P289); details: read-out: Percent Control
T23 construct: purchased Eurofins Discovery (DiscoverX KINOMEscan scanMAX)
Procedure: as §1

[25] = biological target: T24, NDR2 (Homo sapiens, UniProt Q9Y2H1); details: read-out: Percent Control
T24 construct: purchased Eurofins Discovery (DiscoverX KINOMEscan scanMAX)
Procedure: as §1

[26] = biological target: T25, NEK9 (Homo sapiens, UniProt Q8TD19); details: read-out: Percent Control
T25 construct: purchased Eurofins Discovery (DiscoverX KINOMEscan scanMAX)
Procedure: as §1

[27] = biological target: T26, PIK3CB (Homo sapiens, UniProt P42338); details: read-out: Percent Control
T26 construct: purchased Eurofins Discovery (DiscoverX KINOMEscan scanMAX)
Procedure: as §1

[28] = biological target: T27, PKAC-beta (Homo sapiens, UniProt P22694); details: read-out: Percent Control
T27 construct: purchased Eurofins Discovery (DiscoverX KINOMEscan scanMAX)
Procedure: as §1

[29] = biological target: T28, PKN2 (Homo sapiens, UniProt Q16513); details: read-out: Percent Control
T28 construct: purchased Eurofins Discovery (DiscoverX KINOMEscan scanMAX)
Procedure: as §1

[30] = biological target: T29, PLK3 (Homo sapiens, UniProt Q9H4B4); details: read-out: Percent Control
T29 construct: purchased Eurofins Discovery (DiscoverX KINOMEscan scanMAX)
Procedure: as §1

[31] = biological target: T30, RET(M918T) (Homo sapiens, UniProt P07949, M918T); details: read-out: Percent Control
T30 construct: purchased Eurofins Discovery (DiscoverX KINOMEscan scanMAX)
Procedure: as §1

[32] = biological target: T31, RSK4(Kin.Dom.1-N-terminal) (Homo sapiens, UniProt Q9UK32); details: read-out: Percent Control
T31 construct: RSK4(Kin.Dom.1-N-terminal); purchased Eurofins Discovery (DiscoverX KINOMEscan scanMAX)
Procedure: as §1

[33] = biological target: T32, ZAK (Homo sapiens, UniProt Q9NYL2); details: read-out: Percent Control
T32 construct: purchased Eurofins Discovery (DiscoverX KINOMEscan scanMAX)
Procedure: as §1

T25 sequence (Q8TD19 whole entry): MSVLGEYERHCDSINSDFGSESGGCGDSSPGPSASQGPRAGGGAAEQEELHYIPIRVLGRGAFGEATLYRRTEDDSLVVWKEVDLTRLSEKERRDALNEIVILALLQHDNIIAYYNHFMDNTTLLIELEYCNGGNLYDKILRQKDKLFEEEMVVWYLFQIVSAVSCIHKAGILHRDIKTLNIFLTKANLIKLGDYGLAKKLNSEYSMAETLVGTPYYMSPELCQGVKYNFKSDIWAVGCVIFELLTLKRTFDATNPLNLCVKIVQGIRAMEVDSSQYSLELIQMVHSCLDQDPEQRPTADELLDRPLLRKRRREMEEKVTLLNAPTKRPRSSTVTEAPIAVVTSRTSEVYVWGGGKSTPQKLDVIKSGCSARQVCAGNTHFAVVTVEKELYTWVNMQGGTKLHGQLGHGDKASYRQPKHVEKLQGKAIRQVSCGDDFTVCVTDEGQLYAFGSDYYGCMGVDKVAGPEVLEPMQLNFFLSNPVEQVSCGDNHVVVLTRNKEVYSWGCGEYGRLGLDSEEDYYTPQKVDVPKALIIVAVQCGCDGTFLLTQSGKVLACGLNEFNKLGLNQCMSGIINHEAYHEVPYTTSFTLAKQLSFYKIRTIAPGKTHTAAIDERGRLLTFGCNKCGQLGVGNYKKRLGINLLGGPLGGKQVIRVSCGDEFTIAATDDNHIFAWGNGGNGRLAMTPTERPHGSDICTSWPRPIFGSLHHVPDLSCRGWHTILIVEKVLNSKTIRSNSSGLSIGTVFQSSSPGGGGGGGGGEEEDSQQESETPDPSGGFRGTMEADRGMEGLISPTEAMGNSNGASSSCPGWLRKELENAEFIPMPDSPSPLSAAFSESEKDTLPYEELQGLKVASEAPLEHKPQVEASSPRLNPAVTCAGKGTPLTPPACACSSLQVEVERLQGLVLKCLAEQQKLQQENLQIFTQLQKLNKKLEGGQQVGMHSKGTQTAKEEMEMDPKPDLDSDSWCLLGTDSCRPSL
T26 sequence (P42338 whole entry): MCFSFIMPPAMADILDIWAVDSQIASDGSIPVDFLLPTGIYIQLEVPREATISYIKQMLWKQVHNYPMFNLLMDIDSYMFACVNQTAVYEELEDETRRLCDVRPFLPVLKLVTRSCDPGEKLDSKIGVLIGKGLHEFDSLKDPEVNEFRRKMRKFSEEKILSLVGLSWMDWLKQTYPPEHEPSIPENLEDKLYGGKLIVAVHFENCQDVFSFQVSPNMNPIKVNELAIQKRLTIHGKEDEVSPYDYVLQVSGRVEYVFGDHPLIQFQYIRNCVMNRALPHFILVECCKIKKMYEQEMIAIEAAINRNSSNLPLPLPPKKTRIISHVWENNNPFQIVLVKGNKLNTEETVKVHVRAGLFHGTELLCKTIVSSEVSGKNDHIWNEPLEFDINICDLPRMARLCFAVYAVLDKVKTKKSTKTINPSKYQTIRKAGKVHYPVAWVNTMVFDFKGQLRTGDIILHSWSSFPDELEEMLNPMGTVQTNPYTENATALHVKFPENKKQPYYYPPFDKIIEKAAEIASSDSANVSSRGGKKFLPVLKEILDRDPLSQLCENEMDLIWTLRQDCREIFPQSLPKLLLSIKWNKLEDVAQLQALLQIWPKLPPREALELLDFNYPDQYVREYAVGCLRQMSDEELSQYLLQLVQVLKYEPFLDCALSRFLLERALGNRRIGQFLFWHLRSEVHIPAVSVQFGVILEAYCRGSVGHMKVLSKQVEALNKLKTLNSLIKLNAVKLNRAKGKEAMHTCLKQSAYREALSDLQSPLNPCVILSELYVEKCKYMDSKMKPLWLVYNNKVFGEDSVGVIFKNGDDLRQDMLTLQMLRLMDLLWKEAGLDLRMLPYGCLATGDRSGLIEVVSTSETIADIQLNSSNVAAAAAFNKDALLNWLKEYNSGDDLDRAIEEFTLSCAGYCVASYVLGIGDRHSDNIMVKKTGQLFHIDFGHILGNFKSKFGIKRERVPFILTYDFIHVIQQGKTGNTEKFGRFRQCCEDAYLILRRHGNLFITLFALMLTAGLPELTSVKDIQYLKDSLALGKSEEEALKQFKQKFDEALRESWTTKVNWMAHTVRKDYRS
T32 sequence (Q9NYL2 whole entry): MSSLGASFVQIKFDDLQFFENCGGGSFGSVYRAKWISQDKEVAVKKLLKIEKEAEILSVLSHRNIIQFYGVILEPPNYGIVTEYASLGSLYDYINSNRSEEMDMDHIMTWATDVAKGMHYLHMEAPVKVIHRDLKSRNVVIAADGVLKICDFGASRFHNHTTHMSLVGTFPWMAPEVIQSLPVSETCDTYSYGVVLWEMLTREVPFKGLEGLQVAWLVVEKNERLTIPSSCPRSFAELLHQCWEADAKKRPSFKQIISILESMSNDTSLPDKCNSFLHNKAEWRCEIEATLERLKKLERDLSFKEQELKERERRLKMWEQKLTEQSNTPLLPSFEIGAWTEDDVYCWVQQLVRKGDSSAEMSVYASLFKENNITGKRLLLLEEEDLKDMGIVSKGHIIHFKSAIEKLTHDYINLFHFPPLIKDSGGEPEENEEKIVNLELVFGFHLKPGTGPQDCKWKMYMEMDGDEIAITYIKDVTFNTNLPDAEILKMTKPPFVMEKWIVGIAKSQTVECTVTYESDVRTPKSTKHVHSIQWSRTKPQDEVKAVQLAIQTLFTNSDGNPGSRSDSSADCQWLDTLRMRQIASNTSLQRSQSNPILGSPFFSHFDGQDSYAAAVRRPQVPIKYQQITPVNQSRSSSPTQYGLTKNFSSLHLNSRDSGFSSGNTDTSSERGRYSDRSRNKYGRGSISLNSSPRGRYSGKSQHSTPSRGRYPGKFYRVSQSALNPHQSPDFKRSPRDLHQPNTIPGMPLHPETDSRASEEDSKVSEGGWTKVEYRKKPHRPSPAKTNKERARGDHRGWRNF
T16 sequence (P35916 25-1363): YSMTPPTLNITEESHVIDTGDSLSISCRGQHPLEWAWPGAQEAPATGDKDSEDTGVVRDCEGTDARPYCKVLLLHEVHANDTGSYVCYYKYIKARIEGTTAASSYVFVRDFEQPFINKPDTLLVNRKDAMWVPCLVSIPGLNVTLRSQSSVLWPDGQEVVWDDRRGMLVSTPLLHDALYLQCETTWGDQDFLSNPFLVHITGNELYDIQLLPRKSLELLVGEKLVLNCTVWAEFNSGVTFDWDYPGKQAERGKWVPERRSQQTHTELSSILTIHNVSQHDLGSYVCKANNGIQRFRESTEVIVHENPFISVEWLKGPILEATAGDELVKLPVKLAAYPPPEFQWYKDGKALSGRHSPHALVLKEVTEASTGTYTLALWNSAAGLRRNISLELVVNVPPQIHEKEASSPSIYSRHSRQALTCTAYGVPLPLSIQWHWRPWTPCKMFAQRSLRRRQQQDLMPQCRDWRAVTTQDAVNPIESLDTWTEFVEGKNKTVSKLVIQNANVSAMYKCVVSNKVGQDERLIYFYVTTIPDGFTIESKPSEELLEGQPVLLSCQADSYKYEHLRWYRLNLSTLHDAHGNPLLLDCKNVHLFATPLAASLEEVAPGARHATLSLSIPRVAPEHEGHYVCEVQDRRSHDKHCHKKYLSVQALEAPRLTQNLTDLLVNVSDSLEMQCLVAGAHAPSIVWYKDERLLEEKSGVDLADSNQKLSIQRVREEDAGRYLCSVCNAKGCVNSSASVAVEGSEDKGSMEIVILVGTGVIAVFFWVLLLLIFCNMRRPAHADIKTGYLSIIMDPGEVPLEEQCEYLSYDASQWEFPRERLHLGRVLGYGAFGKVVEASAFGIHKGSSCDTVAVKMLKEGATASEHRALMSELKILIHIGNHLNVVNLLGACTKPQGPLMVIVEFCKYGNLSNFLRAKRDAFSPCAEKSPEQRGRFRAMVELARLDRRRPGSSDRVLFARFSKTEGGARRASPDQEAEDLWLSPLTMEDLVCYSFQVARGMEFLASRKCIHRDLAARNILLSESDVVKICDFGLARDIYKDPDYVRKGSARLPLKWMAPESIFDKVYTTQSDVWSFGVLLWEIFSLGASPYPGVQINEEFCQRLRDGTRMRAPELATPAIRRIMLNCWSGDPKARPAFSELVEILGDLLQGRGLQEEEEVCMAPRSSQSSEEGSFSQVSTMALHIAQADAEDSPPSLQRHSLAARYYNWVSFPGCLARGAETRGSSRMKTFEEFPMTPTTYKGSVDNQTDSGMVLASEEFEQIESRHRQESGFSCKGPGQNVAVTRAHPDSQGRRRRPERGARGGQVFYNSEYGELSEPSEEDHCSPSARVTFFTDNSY
T21 sequence (P45985 whole entry): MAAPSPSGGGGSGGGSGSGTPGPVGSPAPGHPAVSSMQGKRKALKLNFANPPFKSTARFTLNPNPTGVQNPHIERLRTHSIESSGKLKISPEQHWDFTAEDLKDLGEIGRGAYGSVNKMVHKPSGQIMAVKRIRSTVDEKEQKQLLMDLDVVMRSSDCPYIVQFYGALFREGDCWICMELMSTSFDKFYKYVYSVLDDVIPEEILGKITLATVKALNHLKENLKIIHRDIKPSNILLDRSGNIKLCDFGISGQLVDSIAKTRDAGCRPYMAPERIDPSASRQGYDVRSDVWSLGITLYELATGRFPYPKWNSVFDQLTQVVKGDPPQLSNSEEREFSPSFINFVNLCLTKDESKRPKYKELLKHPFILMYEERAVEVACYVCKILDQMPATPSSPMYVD
T24 sequence (Q9Y2H1 whole entry): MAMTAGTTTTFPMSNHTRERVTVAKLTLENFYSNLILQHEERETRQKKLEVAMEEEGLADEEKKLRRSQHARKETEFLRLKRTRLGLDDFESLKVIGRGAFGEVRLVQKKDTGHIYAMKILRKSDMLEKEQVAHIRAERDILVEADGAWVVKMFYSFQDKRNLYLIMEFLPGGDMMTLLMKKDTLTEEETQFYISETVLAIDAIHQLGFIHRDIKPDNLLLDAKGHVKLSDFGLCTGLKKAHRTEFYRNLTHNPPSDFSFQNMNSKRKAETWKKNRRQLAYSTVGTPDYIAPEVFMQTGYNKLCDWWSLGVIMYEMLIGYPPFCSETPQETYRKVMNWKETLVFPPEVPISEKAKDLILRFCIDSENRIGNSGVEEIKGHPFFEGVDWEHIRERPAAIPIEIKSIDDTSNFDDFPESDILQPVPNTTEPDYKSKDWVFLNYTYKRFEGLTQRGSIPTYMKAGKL

Cc1cc(Nc2ccc(F)c(CC3(C(=O)N4CCC(F)(CN5CCN(c6ccc(N7CCC(=O)NC7=O)cn6)CC5)CC4)CCN(Cc4cccc(Cl)c4F)CC3)n2)n[nH]1 [SK5527]
remaining binding at 0.1 µM ([1]; 100 nM): 88%
remaining binding at 1 µM ([1]; 1000 nM): 62%
remaining binding at 0.1 µM ([2]; 100 nM): 97%
remaining binding at 1 µM ([2]; 1000 nM): 49%
remaining binding at 0.1 µM ([3]; 100 nM): 63%
remaining binding at 1 µM ([3]; 1000 nM): 15%
remaining binding at 0.1 µM ([4]; 100 nM): 62%
remaining binding at 1 µM ([4]; 1000 nM): 17%
remaining binding at 0.1 µM ([5]; 100 nM): 87%
remaining binding at 1 µM ([5]; 1000 nM): 100%
remaining binding at 0.1 µM ([6]; 100 nM): 100%
remaining binding at 1 µM ([6]; 1000 nM): 100%
remaining binding at 0.1 µM ([7]; 100 nM): 100%
remaining binding at 1 µM ([7]; 1000 nM): 100%
remaining binding at 0.1 µM ([8]; 100 nM): 100%
remaining binding at 1 µM ([8]; 1000 nM): 100%
remaining binding at 0.1 µM ([9]; 100 nM): 100%
remaining binding at 1 µM ([9]; 1000 nM): 83%
remaining binding at 0.1 µM ([10]; 100 nM): 97%
remaining binding at 1 µM ([10]; 1000 nM): 89%
remaining binding at 0.1 µM ([11]; 100 nM): 100%
remaining binding at 1 µM ([11]; 1000 nM): 100%
remaining binding at 0.1 µM ([12]; 100 nM): 98%
remaining binding at 1 µM ([12]; 1000 nM): 93%
remaining binding at 0.1 µM ([13]; 100 nM): 100%
remaining binding at 1 µM ([13]; 1000 nM): 88%
Percent Control ([14]; 100 nM): 83%
Percent Control ([14]; 1000 nM): 74%
remaining binding at 0.1 µM ([15]; 100 nM): 67%
remaining binding at 1 µM ([15]; 1000 nM): 23%
remaining binding at 0.1 µM ([16]; 100 nM): 100%
remaining binding at 1 µM ([16]; 1000 nM): 100%
remaining binding at 0.1 µM ([17]; 100 nM): 76%
remaining binding at 1 µM ([17]; 1000 nM): 40%
remaining binding at 0.1 µM ([18]; 100 nM): 100%
remaining binding at 1 µM ([18]; 1000 nM): 73%
remaining binding at 0.1 µM ([19]; 100 nM): 63%
remaining binding at 1 µM ([19]; 1000 nM): 69%
remaining binding at 0.1 µM ([20]; 100 nM): 100%
remaining binding at 1 µM ([20]; 1000 nM): 87%
remaining binding at 0.1 µM ([21]; 100 nM): 76%
remaining binding at 1 µM ([21]; 1000 nM): 72%
remaining binding at 0.1 µM ([22]; 100 nM): 94%
remaining binding at 1 µM ([22]; 1000 nM): 73%
remaining binding at 0.1 µM ([23]; 100 nM): 76%
remaining binding at 1 µM ([23]; 1000 nM): 55%
remaining binding at 0.1 µM ([24]; 100 nM): 95%
remaining binding at 1 µM ([24]; 1000 nM): 86%
remaining binding at 0.1 µM ([25]; 100 nM): 100%
remaining binding at 1 µM ([25]; 1000 nM): 91%
remaining binding at 0.1 µM ([26]; 100 nM): 78%
remaining binding at 1 µM ([26]; 1000 nM): 81%
remaining binding at 0.1 µM ([27]; 100 nM): 78%
remaining binding at 1 µM ([27]; 1000 nM): 95%
remaining binding at 0.1 µM ([28]; 100 nM): 90%
remaining binding at 1 µM ([28]; 1000 nM): 100%
remaining binding at 0.1 µM ([29]; 100 nM): 81%
remaining binding at 1 µM ([29]; 1000 nM): 81%
remaining binding at 0.1 µM ([30]; 100 nM): 100%
remaining binding at 1 µM ([30]; 1000 nM): 86%
remaining binding at 0.1 µM ([31]; 100 nM): 95%
remaining binding at 1 µM ([31]; 1000 nM): 38%
remaining binding at 0.1 µM ([32]; 100 nM): 93%
remaining binding at 1 µM ([32]; 1000 nM): 79%
remaining binding at 0.1 µM ([33]; 100 nM): 77%
remaining binding at 1 µM ([33]; 1000 nM): 85%
